Converted amounts (≈) assume the structure as drawn. Some results are limits rather than exact numbers.

T1 sequence (P14618 whole entry): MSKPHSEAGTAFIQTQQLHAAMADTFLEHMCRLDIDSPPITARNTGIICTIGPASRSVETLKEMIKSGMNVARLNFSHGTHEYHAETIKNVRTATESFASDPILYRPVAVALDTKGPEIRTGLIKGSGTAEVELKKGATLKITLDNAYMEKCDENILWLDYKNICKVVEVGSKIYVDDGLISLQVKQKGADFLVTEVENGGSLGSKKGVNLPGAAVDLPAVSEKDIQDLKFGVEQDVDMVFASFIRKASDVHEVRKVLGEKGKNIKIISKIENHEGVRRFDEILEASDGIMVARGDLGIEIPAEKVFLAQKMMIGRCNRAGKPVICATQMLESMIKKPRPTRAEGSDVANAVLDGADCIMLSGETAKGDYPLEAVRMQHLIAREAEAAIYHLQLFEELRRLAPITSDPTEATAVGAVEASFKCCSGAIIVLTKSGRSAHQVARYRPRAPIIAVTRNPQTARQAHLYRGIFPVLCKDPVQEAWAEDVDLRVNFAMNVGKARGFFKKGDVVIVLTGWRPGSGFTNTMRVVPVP

Tested on in one data set: not listed separately
Put plainly: Aqueous solubility in DMSO at pH 7.4 by quantitative nitrogen detection assay. The following applies: aqueous solution with DMSO. In kind it is physicochemical.
In the case of `Cc1cc2c(s1)c1cnn(Cc3ccccc3F)c(=O)c1n2C`, the solubility (kinetic) is less than 0.2 µg/mL. `Cn1c2cc([S+](C)[O-])sc2c2cnn(Cc3ccccc3F)c(=O)c21` (stereo unspecified): the kinetic solubility was 4.4 µg/mL (≈ 11.7 µM). Consider `Cn1c2cc([S+](C)[O-])sc2c2cnn(Cc3cccc(N)c3)c(=O)c21` (stereo unspecified), for which the kinetic solubility amounted to 29.6 µg/mL (≈ 79.5 µM). Still for that read-out and setting: the figure for `COc1cccc(Cn2ncc3c4sc([S+](C)[O-])cc4n(C)c3c2=O)c1` (stereo unspecified) is 37.4 µg/mL (≈ 96.5 µM); for `Cn1c2cc([S+](C)[O-])sc2c2cnn(Cc3cccc(O)c3)c(=O)c21` (stereo unspecified) it is 16.9 µg/mL (≈ 45.3 µM).

Another data set concerns the target T1, Pyruvate kinase PKM (Homo sapiens, UniProt P14618).
Conditions: not given; call rule not given here
Take `Cc1cc2c(s1)c1cnn(-c3ccccc3)c(=O)c1n2C`: the concentration at half-maximal activity (AC50) result is reported as “Not Active”. For `Cc1cc2c(s1)c1cnn(Cc3ccccc3F)c(=O)c1n2C(C)C`, the AC50 result is given as “Not Active”.

Take `Cn1c2cc(S(C)(=O)=O)sc2c2cnn(Cc3ccccc3F)c(=O)c21`: the AC50 result is “Not Active”. Consider `Cc1cc2[nH]c3c(=O)n(Cc4ccccc4F)ncc3c2s1`, for which the half-maximal activity concentration (AC50) entry is reported as “Not Active”.

In another data set the target is T1, Pyruvate kinase PKM.
Conditions: not given
This is another data set of the same source.
`Cc1cc2c(s1)c1c(C)nn(Cc3ccccc3F)c(=O)c1n2C` came in with an AC50 of more than 30 µM.

For the molecule `Cc1cc2c(s1)c1cnn(Cc3ccc(C(F)(F)F)cc3F)c(=O)c1n2C`, the concentration at half-maximal activity (AC50) is more than 15 µM. In turn, `Cc1ccc(Cn2ncc3c4sc(C)cc4n(C)c3c2=O)c(F)c1` gave a half-maximal activity concentration (AC50) of 0.108 µM.

With `CCn1c2cc(C)sc2c2cnn(Cc3ccccc3F)c(=O)c21`, the AC50 stood at 5.9 µM. On the same count and under the same terms, for `CC(O)c1cc2c(s1)c1cnn(Cc3ccccc3F)c(=O)c1n2C` (stereo unspecified) the value was 0.136 µM; for `Cn1c2ccsc2c2ncn(Cc3ccccc3F)c(=O)c21`, more than 35 µM; for `CCCCCn1ncc2c3sc(C)cc3n(C)c2c1=O`, more than 35 µM. In turn, `CC(=O)Nc1cc2c(s1)c1cnn(Cc3ccccc3F)c(=O)c1n2C` showed a half-maximal activity concentration (AC50) of more than 25 µM.

`COc1ccc(Cn2ncc3c4sc(C)cc4n(C)c3c2=O)cc1F` displayed an AC50 of 0.225 µM. `COc1cccc(Cn2ncc3c4sc([S+](C)[O-])cc4n(C)c3c2=O)c1` (stereo unspecified) displayed an AC50 of 0.073 µM. The same measure, in the same setting: for `Cn1c2cc(B(O)O)sc2c2cnn(Cc3ccccc3F)c(=O)c21` the value was more than 10 µM. In turn, `Cn1c2cc([S+](C)[O-])sc2c2cnn(Cc3cccc(O)c3)c(=O)c21` (stereo unspecified) had an AC50 of 0.13 µM.

One may read the solubility (kinetic) as solubility judged after dilution from a stock solution rather than from solid. The AC50 is the midpoint of the concentration-response curve, whichever way the signal moves. A higher AC50 goes with activity only at high concentration.
